Reference: patent US9339471B2, “Long acting dual release product containing carbinoxamine and pseudoephedrine” (E5 PHARMA, LLC, priority 2007, dated 2016)
Like-named read-outs stand apart in the source and are kept apart here. Marks after values point to notes of the source that are not given here.

Experiments:
[1] = Single dose bioavailability study in the non-fasted state, 4 mg immediate release carbinoxamine maleate tablet; type: in vivo; set-up: Plasma concentration of carbinoxamine: unit not given here; settings: nonfasted; for AUC(0-t) / Cmax / MRT / Tmax / half-life / AUC: human, plasma, po, 4 mg; for AUC: read-out: AUC0-
Method: A single dose bioavailability study was also undertaken in the non-fasted state using 4 mg immediate release carbinoxamine maleate tablets formulated in an immediate release format. Samples were taken over a forty eight hours period after administration of the drug with heparinized tubes. Breakfast was ingested thirty minutes before administration.
FIG. 2 is a mean plasma concentration-time profile of carbinoxamine after administering the 4 mg carbinoxamine maleate immediate release tablet in the non-fasted state from time 0 to time 48 hours. Graph (A) is the linear ordinate; graph (B) is the log-linear ordinate. FIG. 3 is an overlay of mean plasma concentration-time profiles of carbinoxamine administered under nonfasted and fasted conditions from time 0 to 48 hours, as reported in Example 3. Graph (A) is an overlay in the linear ordinates for the two conditions; graph (B) is an overlay in the log-linear ordinates for the two conditions.

[2] = Literature 1 (Stockis et al. 1992): bioavailability of 8 mg aqueous solution and 8 mg retard capsule of carbinoxamine; settings: in vivo, normalized to 4 mg dose
Method: The pharmacokinetics of carbinoxamine maleate have been reported in the literature. Stockis et al., Arzneim.-Forsch 1992, 42(12):1478-81, studied the bioavailability of an 8 mg aqueous solution of carbinoxamine and an 8 mg retard capsule of carbinoxamine.
A single dose fasted bioavailability study was undertaken using four milligram immediate release carbinoxamine maleate tablets formulated in an immediate release format. Samples were taken over a forty eight hours period after administration of the drug, and the first meal was allowed to be ingested four hours after administration. Table 3 compares the observed pharmacokinetics from this test to those observed by Stockis et al. in Arzneim.-Forsch 1992, 42(12):1478-81, and Stockis et al. in Arzneim.-Forsch 1995, 45(9) 1009-1012.

[3] = cited from earlier work; for AUC(0-t): AUC0-24
[4] = cited from earlier work; for AUC(0-t): AUC0-6
[5] = po, Literature 1, Retard capsule 8 mg
[6] = Literature 1, Aqueous solution 8 mg
[7] = Literature 1, Retard capsule 8 mg
[8] = 4 mg retard capsule, single administration
[9] = 4 mg retard capsule, successive administrations
[10] = Literature 2, Aqueous solution 4 mg
[11] = Literature 2, Retard capsule 4 mg
[12] = Literature 2, Retard capsule SS 4 mg, steady-state (q12 h)

CN(C)CCOC(c1ccc(Cl)cc1)c1ccccn1 (stereo not drawn) [carbinoxamine, 2-[(4-chlorophenyl)-2-pyridinylmethoxy]-N,N-dimethylethanamine (Z)-2-butenedioate (1:1)]
AUC(0-t) ([1]; Mean): 212 ng·h/mL
Cmax ([1]; Mean): 12.6 ng/mL
MRT ([1]; Mean): 26.9 h
Tmax ([1]; Mean): 2.67 h
half-life ([1]; Mean): 19 h
AUC ([1]; Mean): 260 ng·h/mL
AUC(0-t) ([1]; subject 101): 175 ng·h/mL
Cmax ([1]; subject 101): 8.11 ng/mL
MRT ([1]; subject 101): 25.6 h
Tmax ([1]; subject 101): 4 h
half-life ([1]; subject 101): 17.1 h
AUC ([1]; subject 101): 206 ng·h/mL
AUC(0-t) ([1]; subject 102): 292 ng·h/mL
Cmax ([1]; subject 102): 18.9 ng/mL
MRT ([1]; subject 102): 31.7 h
Tmax ([1]; subject 102): 2 h
half-life ([1]; subject 102): 22.9 h
AUC ([1]; subject 102): 178 ng·h/mL
AUC(0-t) ([1]; subject 103): 170 ng·h/mL
Cmax ([1]; subject 103): 10.7 ng/mL
MRT ([1]; subject 103): 23.4 h
Tmax ([1]; subject 103): 2 h
half-life ([1]; subject 103): 16.9 h
AUC ([1]; subject 103): 196 ng·h/mL
Plasma concentration of carbinoxamine ([1]; 0 h, subject 101T): blq
Plasma concentration of carbinoxamine ([1]; 0 h, subject 102T): blq
Plasma concentration of carbinoxamine ([1]; 0 h, subject 103T): blq
Plasma concentration of carbinoxamine ([1]; 0.5 h, T-Mean): 1415.00
Plasma concentration of carbinoxamine ([1]; 0.5 h, subject 101T): 1190.29
Plasma concentration of carbinoxamine ([1]; 0.5 h, subject 102T): 1371.47
Plasma concentration of carbinoxamine ([1]; 0.5 h, subject 103T): 1683.25
Plasma concentration of carbinoxamine ([1]; 1 h, T-Mean): 9391.48
Plasma concentration of carbinoxamine ([1]; 1 h, subject 101T): 5017.55
Plasma concentration of carbinoxamine ([1]; 1 h, subject 102T): 15948.51
Plasma concentration of carbinoxamine ([1]; 1 h, subject 103T): 7208.39
Plasma concentration of carbinoxamine ([1]; 2 h, T-Mean): 12274.78
Plasma concentration of carbinoxamine ([1]; 2 h, subject 101T): 7279.95
Plasma concentration of carbinoxamine ([1]; 2 h, subject 102T): 18873.34
Plasma concentration of carbinoxamine ([1]; 2 h, subject 103T): 10671.05
Plasma concentration of carbinoxamine ([1]; 3 h, T-Mean): 10596.92
Plasma concentration of carbinoxamine ([1]; 3 h, subject 101T): 7409.87
Plasma concentration of carbinoxamine ([1]; 3 h, subject 102T): 14981.55
Plasma concentration of carbinoxamine ([1]; 3 h, subject 103T): 9399.33
Plasma concentration of carbinoxamine ([1]; 4 h, T-Mean): 9957.93
Plasma concentration of carbinoxamine ([1]; 4 h, subject 101T): 8113.91
Plasma concentration of carbinoxamine ([1]; 4 h, subject 102T): 12868.20
Plasma concentration of carbinoxamine ([1]; 4 h, subject 103T): 8891.67
Plasma concentration of carbinoxamine ([1]; 5 h, T-Mean): 9064.58
Plasma concentration of carbinoxamine ([1]; 5 h, subject 101T): 7450.78
Plasma concentration of carbinoxamine ([1]; 5 h, subject 102T): 11670.11
Plasma concentration of carbinoxamine ([1]; 5 h, subject 103T): 8072.86
Plasma concentration of carbinoxamine ([1]; 6 h, T-Mean): 8311.90
Plasma concentration of carbinoxamine ([1]; 6 h, subject 101T): 7053.79
Plasma concentration of carbinoxamine ([1]; 6 h, subject 102T): 10649.47
Plasma concentration of carbinoxamine ([1]; 6 h, subject 103T): 7232.44
Plasma concentration of carbinoxamine ([1]; 8 h, T-Mean): 7184.22
Plasma concentration of carbinoxamine ([1]; 8 h, subject 101T): 6458.92
Plasma concentration of carbinoxamine ([1]; 8 h, subject 102T): 8834.94
Plasma concentration of carbinoxamine ([1]; 8 h, subject 103T): 6258.79
Plasma concentration of carbinoxamine ([1]; 12 h, T-Mean): 5363.07
Plasma concentration of carbinoxamine ([1]; 12 h, subject 101T): 4676.58
Plasma concentration of carbinoxamine ([1]; 12 h, subject 102T): 7186.93
Plasma concentration of carbinoxamine ([1]; 12 h, subject 103T): 4225.70
Plasma concentration of carbinoxamine ([1]; 24 h, T-Mean): 3869.18
Plasma concentration of carbinoxamine ([1]; 24 h, subject 101T): 3297.38
Plasma concentration of carbinoxamine ([1]; 24 h, subject 102T): 5400.86
Plasma concentration of carbinoxamine ([1]; 24 h, subject 103T): 2909.31
Plasma concentration of carbinoxamine ([1]; 36 h, T-Mean): 2453.59
Plasma concentration of carbinoxamine ([1]; 36 h, subject 101T): 2197.69
Plasma concentration of carbinoxamine ([1]; 36 h, subject 102T): 3336.26
Plasma concentration of carbinoxamine ([1]; 36 h, subject 103T): 1826.88
Plasma concentration of carbinoxamine ([1]; 48 h, T-Mean): 1650.44
Plasma concentration of carbinoxamine ([1]; 48 h, subject 101T): 1249.68
Plasma concentration of carbinoxamine ([1]; 48 h, subject 102T): 2616.93
Plasma concentration of carbinoxamine ([1]; 48 h, subject 103T): 1084.70
AUC(0-t) [2, 5]: 119 ng·h/mL
Cmax [2, 5]: 8.45 ng/mL
AUC(0-t) [2, 6]: 143 ng·h/mL
Cmax [2, 6]: 12 ng/mL
Cmax ([3]; 8 mg aqueous solution): 24 ng/mL
half-life ([3]; 8 mg aqueous solution): 10.6 h
Cmax ([3]; 8 mg retard capsule): 16.9 ng/mL
Tmax ([3]; 8 mg retard capsule): 8 h
half-life ([3]; 8 mg retard capsule): 14.5 h
AUC(0-t) [3, 6]: 386^b ng/ml * h
Cmax [3, 6]: 24 ng/mL
T1/2 [3, 6]: 10.6 h
AUC(0-t) [3, 7]: 238^b ng/ml * h
Cmax [3, 7]: 16.9 ng/mL
T1/2 [3, 7]: 14.5 h
Cmax [4, 8]: 4.5 ng/mL
Tmax [4, 8]: 6.2 h
half life [4, 8]: 30 h
Cmax [4, 9]: 13.5 ng/mL
Tmax [4, 9]: 4.8 h
half life [4, 9]: 22 h
AUC(0-t) [4, 10]: 64^c ng/ml * h
Cmax [4, 10]: 6.5 ng/mL
T1/2 [4, 10]: 15 h
Tmax [4, 10]: 2.6 h
AUC(0-t) [4, 11]: 57^c ng/ml * h
Cmax [4, 11]: 4.5 ng/mL
T1/2 [4, 11]: 30 h
Tmax [4, 11]: 6.2 h
AUC0-* · [4, 12]: 125 ng·h/mL
Cmax [4, 12]: 13.5 ng/mL
T1/2 [4, 12]: 22 h
Tmax [4, 12]: 4.8 h
